Assay: Bioavailability enhancement: drug, nutraceutical or herbal product given alone or with bioenhancer (BE) to fasted rats, blood (plasma) levels 0-24 hrs by HPLC
Conditions: drug + BE from Cuminum cyminum (extract 16 mg/kg or fraction, rats) vs drug alone
Experimental: • 1. Bioenhancers (BEs) from Cuminum cyminum means either the aqueous, or 50% alcoholic extract or fractions No. 1 to 5. • 2. Piperine as Bioenhancer (BE) from Piper species means the molecule with characteristics as described in Example 2 of this invention. • 3.
• (i) Bioenhancer (BE) from Cuminum cyminum • Extract: 16 mg/kg body weight (Rats) • Fraction No. 1: 02–5 mg/kg body weight (rats) • Fraction No.2: 13-mg/kg body weight (Rats) • Fraction No. 3: 8 mg/kg body weight (Rats) • Fraction No. 4: 5 mg/kg body weight (Rats) • Fraction No. 5: 2.5 to 5 mg/kg body weight (Rats) • (ii) Piperine: 8 mg/kg body weight (Rats) As an example of an experiment in Rat (fasted): • Drug: Rifampicin, 40 mg/kg • BE (Cuminum cyminum): Doses as in Example No. 5 above. • BE (Cuminum cyminum)+Piperine: Doses as in Example No. 5 above.
Experimental procedure: Drug alone/or in combination with BE was administered to rats as per the following design: • Group 1: Control • Group 2: Rifampicin alone • Group 3: BE alone • Group 4: Rifampicin+BE (Cuminum cyminum) • Group 5: Rifampicin+BE (C. cyminum+piperine)
Blood from control/treated animals at predetermined intervals (0–24 hrs) (Total 14 timings). Rifampicin was extracted from the blood (plasma) using dichloromethane. The concentration of rifampicin in the samples was determined using HPLC (Model: Shimadzu 1080 BP); PDA detector; Mobile phase: phosphate buffer: acetonitile (40:60); Flow rate 1.0 ml/min. Column RP 18.
Control and BE only groups were employed to study the interference of plasma component and the bioenhancer used.
List of drugs, nutraceuticals, herbal formulations cited below as some of the example for the purpose of present invention.

| SMILES | % Enhancement in bioavailability, BE from Cuminum cyminum [%] |
| --- | --- |
| Cc1nnc2n1-c1ccc(Cl)cc1C(c1ccccc1)=NC2 [Alprazolam] | 60 |

Same assay, conditions: drug + piperine (8 mg/kg, rats) vs drug alone

| SMILES | % Enhancement in bioavailability, Piperine as BE [%] |
| --- | --- |
| Cc1nnc2n1-c1ccc(Cl)cc1C(c1ccccc1)=NC2 [Alprazolam] | 98 |

Same assay, conditions: drug + piperine + active molecule (rats) vs drug alone

| SMILES | % Enhancement in bioavailability, Piperine + Active molecule [%] |
| --- | --- |
| Cc1nnc2n1-c1ccc(Cl)cc1C(c1ccccc1)=NC2 [Alprazolam] | 104 |

Same assay, conditions: rat, in vivo

| SMILES | % Enhancement in bioavailability, Piperine + Active molecule | % Enhancement in bioavailability, Piperine + BE from Cuminum cyminum |
| --- | --- | --- |
| O=c1[nH]cc(F)c(=O)[nH]1 [5-Fluorouracil] | 435% |  |
| Nc1nc2c(ncn2COCCO)c(=O)[nH]1 [Acyclovir] | 98% |  |
| NCC[C@H](O)C(=O)N[C@@H]1C[C@H](N)[C@@H](O[C@H]2O[C@H](CN)[C@@H](O)[C@H](O)[C@H]2O)[C@H](O)[C@H]1O[C@H]1O[C@H](CO)[C@@H](O)[C@H](N)[C@H]1O [Amikacin] | Nil |  |
| CCOC(=O)C1=C(COCCN)NC(C)=C(C(=O)OC)C1c1ccccc1Cl (stereo not shown) [Amlodipine] | 103% |  |
| CC1(C)S[C@@H]2[C@H](NC(=O)[C@H](N)c3ccc(O)cc3)C(=O)N2[C@H]1C(=O)O [Amoxycillin] | 98% |  |
| CC[C@H]1OC(=O)[C@H](C)[C@@H](O[C@H]2C[C@@](C)(OC)[C@@H](O)[C@H](C)O2)[C@H](C)[C@@H](O[C@@H]2O[C@H](C)C[C@H](N(C)C)[C@H]2O)[C@](C)(O)C[C@@H](C)CN(C)[C@H](C)[C@@H](O)[C@]1(C)O [Azithromycin] | 97% |  |
| CN(Cc1cc(Br)cc(Br)c1N)C1CCCCC1 [Bromhexine] | 90% |  |
| CC1=C(C(=O)O)N2C(=O)[C@@H](NC(=O)[C@H](N)c3ccc(O)cc3)[C@H]2SC1 [Cefadroxil] |  | 79% |
| CO/N=C(\C(=O)N[C@@H]1C(=O)N2C(C(=O)O)=C(CSc3nc(=O)c(O)nn3C)CS[C@H]12)c1csc(N)n1 [Cefatrioxone] |  | Nil |
| C=CC1=C(C(=O)O)N2C(=O)[C@@H](NC(=O)/C(=N\OCC(=O)O)c3csc(N)n3)[C@H]2SC1 [Cefixime] |  | Nil |
| CN/C(=N/CCSCc1nc[nH]c1C)NC#N [Cimetidine] |  | 105% |
| Cc1onc(-c2ccccc2Cl)c1C(=O)N[C@@H]1C(=O)N2[C@@H]1SC(C)(C)[C@@H]2C(=O)O [Cloxacillin] | 95% |  |
| N[C@@H]1CON=C1O [Cycloserine] | 90% |  |
| Nc1ccc(S(=O)(=O)c2ccc(N)cc2)cc1 [Dapsone] | 75% |  |
| O=C(O)Cc1ccccc1Nc1c(Cl)cccc1Cl [Diclofenac] | 108% |  |
| COc1cccc2c1C(=O)c1c(O)c3c(c(O)c1C2=O)C[C@@](O)(C(=O)CO)C[C@@H]3O[C@H]1C[C@H](N)[C@H](O)[C@H](C)O1 [Doxorubicin] | 103% |  |
| CC[C@H]1OC(=O)[C@H](C)[C@@H](O[C@H]2C[C@@](C)(OC)[C@@H](O)[C@H](C)O2)[C@H](C)[C@@H](O[C@@H]2O[C@H](C)C[C@H](N(C)C)[C@H]2O)[C@](C)(O)C[C@@H](C)C(=O)[C@H](C)[C@@H](O)[C@]1(C)O [Erythromycin] | 95% |  |
| CC[C@@H](CO)NCCN[C@@H](CC)CO [Ethambutol] | Nil |  |
| CCc1cc(C(N)=S)ccn1 [Ethionamide] | 65% |  |
| O=C(CCCN1CCC(O)(c2ccc(Cl)cc2)CC1)c1ccc(F)cc1 [Haloperidol] | Nil |  |

| SMILES | % Enhancement in bioavailability, Piperine + Active molecule | % Enhancement in bioavailability, Piperine + BE from Cuminum cyminum |
| --- | --- | --- |
| NNC(=O)c1ccncc1 [Isoniazid] | Negligible |  |
| CC(=O)N1CCN(c2ccc(OCC3COC(Cn4ccnc4)(c4ccc(Cl)cc4Cl)O3)cc2)CC1 (stereo not shown) [Ketoconazole] | 156% |  |
| NCCCC[C@H](N[C@@H](CCc1ccccc1)C(=O)O)C(=O)N1CCC[C@H]1C(=O)O [Lisinopril] | 98% |  |
| CN(Cc1cnc2nc(N)nc(N)c2n1)c1ccc(C(=O)N[C@@H](CCC(=O)O)C(=O)O)cc1 [Methotrexate] | 30% |  |
| COc1c(C)c2c(c(O)c1C/C=C(\C)CCC(=O)OCCN1CCOCC1)C(=O)OC2 [Mycophenolate Mofeit, Mycophenolate mofetil] | Nil |  |
| CS(=O)(=O)Nc1ccc([N+](=O)[O-])cc1Oc1ccccc1 [Nimesulide] | 150% |  |
| CCn1cc(C(=O)O)c(=O)c2cc(F)c(N3CCNCC3)cc21 [Norfloxacin] | Negligible |  |
| CC1COc2c(N3CCN(C)CC3)c(F)cc3c(=O)c(C(=O)O)cn1c23 (stereo not shown) [O-floxacin, Ofloxacin] | 73% |  |
| COc1ccc2[nH]c([S+]([O-])Cc3ncc(C)c(OC)c3C)nc2c1 (stereo not shown) [Omeprazole] |  | Nil |
| CN1C(C(=O)Nc2ccccn2)=C(O)c2ccccc2S1(=O)=O [Piroxicam] | 107% |  |
| CC(C)NCC(O)COc1cccc2ccccc12 (stereo not shown) [Propranolol] | 210% |  |
| NC(=O)c1cnccn1 [Pyrazinamide] | Nil |  |
| CNC(=C[N+](=O)[O-])NCCSCc1ccc(CN(C)C)o1 [Ranitidine] |  | 89% |
| CO[C@H]1/C=C/O[C@@]2(C)Oc3c(C)c(O)c4c(O)c(c(/C=N/N5CCN(C)CC5)c(O)c4c3C2=O)NC(=O)/C(C)=C\C=C\[C@H](C)[C@H](O)[C@@H](C)[C@@H](O)[C@@H](C)[C@H](OC(C)=O)[C@@H]1C [Rifampicin] | 366% |  |
| CS(=O)(=O)c1ccc(C2=C(c3ccccc3)C(=O)OC2)cc1 [Rofecoxib] | Negligible |  |
| CC[C@H]1OC(=O)[C@H](C)[C@@H](O[C@H]2C[C@@](C)(OC)[C@@H](O)[C@H](C)O2)[C@H](C)[C@@H](O[C@@H]2O[C@H](C)C[C@H](N(C)C)[C@H]2O)[C@](C)(O)C[C@@H](C)/C(=N\OCOCCOC)[C@H](C)[C@@H](O)[C@]1(C)O [Roxythromycin] | 103% |  |
| CC(C)(C)NCC(O)c1ccc(O)c(CO)c1 (stereo not shown) [Salbutamol] | 85% |  |
| C=CC[C@@H]1/C=C(\C)C[C@H](C)C[C@H](OC)[C@H]2O[C@@](O)(C(=O)C(=O)N3CCCC[C@H]3C(=O)O[C@H](/C(C)=C/[C@@H]3CC[C@@H](O)[C@H](OC)C3)[C@H](C)[C@@H](O)CC1=O)[C@H](C)C[C@@H]2OC [Tacrolimus] | 117% |  |
| Cn1c(=O)c2[nH]cnc2n(C)c1=O [Theophylline] | 75% |  |
| Cc1cn([C@H]2C[C@H](N=[N+]=[N-])[C@@H](CO)O2)c(=O)[nH]c1=O [Zidovudine] | 415% |  |

Reference: US7070814B2, “Bioavailability / bioefficacy enhancing activity of Cuminum cyminum and extracts and fractions thereof” (Council of Scientific and Industrial Research, priority 2002, dated 2006)
